In patent US11168319B1, “Plant cell culture” (Inari Agriculture Technology, Inc., priority 2017, dated 2021):
Several values for one entry are separate records, joined by “and”; a condition that tells them apart may be missing. Equal values may be shown once. Read-outs that look alike come from different tables or passages of the source.

How the values were obtained:
[1] = tested on: plant protoplasts
[2] = tested on: maize protoplasts (A188, B73, B104, HiIIA, HiIIB); experiment: Protoplast viability by light microscope, five maize germplasm lines; assay type: cell-based; settings: 34 hours, across the five maize lines
From the text: (§1) Viability was judged by visualization under a light microscope.

[3] = tested on: winter wheat, soy, and strawberry protoplasts; experiment: Protoplast viability by light microscope, other species; assay type: cell-based; settings: day 8, 0, 50 or 100 millimolar calcium
[4] = tested on: maize HiIIA protoplasts; experiment: Cell division rate by EdU staining (% EdU); assay type: cell-based; settings: 100 mM Ca^2+
Description: (§2) Cell division was monitored, e.g., by microscopic observations. […] Evidence of cell division was observed by microscopy and included increased cell or protoplast size, bulging membranes, and large groups of organelles occupying the separating daughter cells. Quantification of cell division was carried out using fluorescent staining. Cells were treated with the thymidine analogue 5-ethynyl-2′-deoxyuridine (EdU), which is incorporated into DNA during S-phase and can be fluorescently activated using a fluorochrome that has been conjugated to an azide molecule. Cells that are the result of cellular division in the presence of EdU were identified by the resulting green fluorescent signal, which can be quantified by various means, e.g., with a microplate reader, cell counter, or cell sorter.
In a separate experiment, maize HiIIA protoplasts were grown in 24-well plates using YPIM B-liquid medium containing 100 millimolar Ca^2+ and 20 micromolar EdU. Identical plates were incubated under hypoxia (5% oxygen by volume, 26 degrees Celsius, 80% relative humidity) or ambient oxygen (21% oxygen by volume, 26 degrees Celsius, 80% relative humidity). Entire wells (250 microliters) were taken for EdU detection at four time points. The contents of each well was centrifuged and the pellet subjected to the Click-iT™ EdU Alexa Fluor™ 488 Imaging Kit (catalogue number C10337, Thermo Fisher Scientific, Waltham, Mass.) fluorescent labelling protocol. The labelled protoplasts were resuspended in YPIM B-medium and samples analyzed on a Nexcelom Cellometer (Nexcelom Bioscience LLC, Lawrence, Mass.). This assay was developed to detect the EdU signal from the nucleus of a cell resulting from cell division, as well as the fluorescent signal from chloroplasts as a measure of total cell count. Results are provided in Table 4 as a percentage of cells displaying the EdU signal relative to the total cell count (“% EdU”).

[5] = tested on: maize B73 protoplasts; settings: for Viability (%): 100 mM Ca; for protoplast viability: 288 hours, YPIM B- medium
Description: Separate suspensions of maize B73 and A188 protoplasts (2×10^5 cells per milliliter) were prepared in YPIM B-liquid medium containing various combinations of the added salts calcium chloride, potassium ascorbate, and magnesium chloride or magnesium sulfate. One-half milliliter aliquots of the suspensions were dispensed into a 24-well microtiter plate in the arrangement shown in Table 2, which lists the concentrations of calcium chloride (“Ca”), potassium ascorbate (“A”), and magnesium chloride (“MgCl2”) or magnesium sulfate (“MgSO4”) in millimolar values.
Viability was judged by Evans blue staining and visualization under a light microscope.
Separate suspensions of maize B73, winter wheat, soy, and strawberry protoplasts (2×10^5 cells per milliliter) were prepared in YPIM B-liquid medium containing calcium chloride at 0, 50, or 100 millimolar. One-half milliliter aliquots of the suspensions were dispensed into a 24-well microtiter plate.
Viability at day 8 of culture was judged by visualization under a light microscope.
Viability at day 13 was judged by Evans blue staining and visualization under a light microscope.
(§3) Separate suspensions of maize B73 protoplasts (2×10^5 cells per milliliter) were prepared in PIM B-liquid medium (identical to YPIM B-medium except with the 6-benzylaminopurine substituted with 0.022 milligrams/L thidiazuron) containing calcium chloride added at 0, 5, 20, 40, 70, or 100 millimolar. One-half milliliter aliquots of the suspensions were dispensed into a 24-well microtiter plate.
Viability was judged by visualization under a light microscope at day 7 and at day 14 of culture.
as §3, with “B73 and A188” for “B73”, “0” for “0, 5, 20, 40, 70,”, “50” for “100”
as §1
Separate suspensions of maize B73 and A188 protoplasts (2×10^5 cells per milliliter) were prepared in YPIM B-liquid medium containing (a) calcium chloride added at 100 millimolar, or (b) 1 millimolar glutathione, or (c) no added calcium or glutathione. One-milliliter aliquots of the suspensions were dispensed into a 24-well microtiter plate. At 16, 40, 64, and 136 hours of culture, 50-microliter samples were taken for hemocytometer analysis from each well; for the plates containing maize A188 protoplasts, parallel 50-microliter samples were taken from a replicate well at 16, 40, and 64 hours of culture for quantification using a Cellometer cell counter (Nexcelom Bioscience LLC, Lawrence, Mass.).
Viability was determined by Evans blue staining and quantification using a hemocytometer. Under conditions with high concentrations of calcium, Evans blue can create precipitates that interfere with cell counting; to prevent this, 5 microliters of an EDTA solution was added to the samples from the wells containing 100 millimolar calcium chloride immediately prior to staining.

[6] = tested on: soybean protoplasts; experiment: Protoplast viability (Evans blue staining, light microscope); assay type: cell-based
[7] = tested on: maize A188 protoplasts; experiment: Signs of cell division by microscopy under 5% or 21% oxygen; assay type: cell-based; settings: day 8, 100 millimolar Ca^2+ in YPIM B-, 5% oxygen vs 21% oxygen by volume
Description: as §2
In one experiment, maize A188 protoplasts were grown under either 5% or 21% oxygen by volume in YPIM B-liquid medium containing 100 millimolar Ca^2+.

[8] = day 13, 50 millimolar calcium, Evans blue

[Ca+2].[Cl-].[Cl-] [calcium chloride]
plant protoplast viability ([1]; about 40 millimolar or about 50 millimolar): Even higher levels of plant protoplast viability
protoplast viability ([1]; between or about 50 to about 100 millimolar, several titration experiments): greatest improvement in protoplast viability
plant protoplast viability ([1]; culture medium contains about 30 millimolar): Beneficial effects
viability ([2]; 50 millimolar calcium): about 55%
viability ([2]; 100 millimolar calcium): about 70%
viability [3]: no large differences
% EdU ([4]; 5% oxygen by volume, 93 hours): 12%
% EdU ([4]; 5% oxygen by volume, 117 hours): 19%
% EdU ([4]; 5% oxygen by volume, 165 hours, listed as Ca^2+): 19% and 15%
% EdU ([4]; 21% oxygen by volume, 93 hours): 6.5%
% EdU ([4]; 21% oxygen by volume, 117 hours, listed as Ca^2+): 6.9% and 8.0%
% EdU ([4]; 21% oxygen by volume, 141 hours, listed as Ca^2+): 13% and 4.8%
% EdU ([4]; 21% oxygen by volume, 165 hours, listed as Ca^2+): 5.0% and 0.0%
Viability (%) ([5]; 0 hours, hemocytometer): 90%
Viability (%) ([5]; 16 hours): 65%
Viability (%) ([5]; 40 hours): 57%
Viability (%) ([5]; 64 hours): 58%
Viability (%) ([5]; 136 hours): 30%
protoplast viability ([5]; 50 mM added salt): almost all dead
protoplast viability ([5]; 100 mM added salt): 10-20%
viability and cell division ([5]; PIM B- medium, 100 millimolar calcium): strongest enhanced viability and cell division
viability ([5]; day 6, PIM B- medium, 50 millimolar calcium): still contained viable cells
viability and cell division ([5]; day 7, PIM B- medium, 40, 70, or 100 millimolar calcium): formed clusters of viable, healthy cells with cell division occurring
viability ([5]; day 7, PIM B- medium, less than 40 millimolar calcium): dead
viability ([5]; day 8, 50 millimolar calcium, YPIM B-, light microscope): 30%
viability ([5]; day 8, 100 millimolar calcium, YPIM B-, light microscope): 80%
viability [5, 8]: 0%
viability of the maize protoplasts (second statement in the sentence) [5, 8]: 50%
viability ([5]; day 13, 100 millimolar calcium, Evans blue): 10%
viability ([6]; day 13, 50 millimolar calcium): 50%
viability ([6]; day 13, 100 millimolar calcium): 50%
signs of cell division [7]: many more protoplasts displaying signs of cell division
